From patent US12338244B2, “Temozolomide compounds, polymers prepared therefrom, and method of treating a disease” (University of Massachusetts, priority 2016, dated 2025) come the findings set out here.

The structures appear in SMILES notation. pIC50: −log10 of the molar value.

What is called pIC50 is the IC50 on a negative log10 scale, so that one unit is a factor of ten. A low value points to a large IC50.

One series relates to U87MG cells. Nature of the series: CellTiter-Glo luminescent cell viability assay, cytotoxic effects on glioblastoma cell line. The class given is cell-based. The settings on record: Homo sapiens, U-87 MG, 168 h; U87MG (TMZ sensitive) cells, Day 7, doses 0-10000 μM. How it is done:
Testing of the cytotoxic effects of polyMPC-TMZ on glioblastoma (GBM) cell lines utilized U87MG (TMZ sensitive cell line) and T98G (TMZ-resistant cell line). […] U87MG cells were plated on 96 well plates and cultured overnight in DMEM media containing 10% FBS at 37° C. in a CO2 incubator. The cells were treated with different doses of TMZ (0-10000 μM), polyMPC-TMZ-17% (random copolymer with 17 mole percent TMZ monomer) (0-10000 μM), polyMPC-TMZ-26% (random copolymer with 26% TMZ monomer) (0-10000 μM), polyMPC-TMZ-33% (random copolymer with 33% TMZ monomer) (0-10000 μM) or polyMPC-TMZ-50% random copolymer with 50 mole percent TMZ monomer) (0-10000 μM) and cell viability was tested on Day 7 using the CellTiter-Glo luminescent cell viability assay purchased from Promega, Inc. PolyMPC itself was used as a control polymer. […] All of the polyMPC-TMZ conjugates were efficacious, with a modified toxicity response as is typical of polymer prodrugs which mask the toxicity of the drug prior to making them available to the tumor. […] The higher IC50 values of polyMPC-TMZ will allow for introduction of larger drug doses in in vivo experiments.
For orientation: ATP-based viability assays read luminescence as a measure of living cells.

A short description of series [1]: Stability of TMZ in organic solvents by UV-Vis spectroscopy. The series is classed as physicochemical. Conditions: 0.01 mg/ml in 1:1 MeOH:DMSO. How it is done: This observation prompted investigation of the stability of TMZ in organic solvents, a property not previously reported to our knowledge. Solutions of TMZ (0.01 milligram per milliliter concentration) in 1:1 MeOH:DMSO, DMSO, ACN, and 2,2,2-trifluoroethanol (TFE) were incubated at room temperature, as well as elevated temperatures (e.g., 50° C. and 70° C.). […] The marked difference in stability of TMZ observed between MeOH and TFE was attributed to the poor nucleophilicity of the latter, which precludes rapid imidazotetrazine solvolysis.

The compound `Cn1nnc2c(C(N)=O)ncn2c1=O` [TMZ, Temozolomide] showed a pIC50 in the series on U87MG cells of approximately 3.72. Also, the “degradation in MeOH:DMSO mixture, heated” value in series [1] (50° C. or 70° C., after 1 hour) is “fully degraded”. Moreover, the “degradation in MeOH:DMSO mixture, room temperature” value in series [1] (room temperature) is “significant degradation”.
